Results from article PMC9765450, “Structures of Fission Yeast Inositol Pyrophosphate Kinase Asp1 in Ligand-Free, Substrate-Bound, and Product-Bound States” (mBio, 2022).

Molecular target: T1, Asp1-(1-385) kinase domain (Schizosaccharomyces pombe, UniProt O74429, E248Q)
T1 construct: N-terminal kinase domain, residues 1-385
Test: PAGE kinase assay, toluidine blue staining
Assay type: biochemical
Conditions: 2 mM GTP, 0.5 mM 5-IP7, 5 mM MgCl2, pH 6.2, 37 °C; phosphate donor

SMILES: Nc1nc2c(ncn2[C@@H]2O[C@H](COP(=O)(O)OP(=O)(O)OP(=O)(O)O)[C@@H](O)[C@H]2O)c(=O)[nH]1 [GTP]
- PAGE kinase assay, toluidine blue staining: elicited a gain of function whereby GTP was enabled as a phosphate donor
